Laboratory results: ChEMBL document CHEMBL2029327, “Synthetic menthyl α/β-(1→6)-diglucopyranosides-induced cell death in human leukemia cells is dependent on caspases” (Bioorg Med Chem Lett, 2012)
Active and inactive are the calls of the source. The calls are words filed in the database; no cut-off is given here.

Key:
MOLT-3 [1] = assay: Cytotoxicity against human MOLT3 cells assessed as morphological changes at 10 uM after 24 hrs by inverted phase-contrast microscopic analysis; format: functional, cell-based
HL-60 [2] = assay: Cytotoxicity against human HL60 cells assessed as morphological changes at 10 uM after 24 hrs by inverted phase-contrast microscopic analysis; format: functional, cell-based
U-937 [3] = assay: Induction of apoptosis in human U937 cells assessed as increase in chromatin condensation at 10 uM after 24 hrs by Hoechst staining-based flow cytometric analysis; format: functional, cell-based
MOLT-3 [4] = assay: Induction of apoptosis in human MOLT3 cells assessed as […] hydrolysis of chromatin at 10 uM after 24 hrs by agarose gel electrophoretic analysis; format: functional, cell-based
U-937 [5] = assay: Cytotoxicity against human U937 cells after 72 hrs by MTT assay; format: functional, cell-based; settings: for IC50: U-937, 72 h
MOLT-3 [6] = assay: Induction of apoptosis in human MOLT3 cells assessed as increase in chromatin condensation at 10 uM after 24 hrs by Hoechst staining-based flow cytometric analysis; format: functional, cell-based
HL-60 [7] = assay: Cytotoxicity against human HL60 cells after 72 hrs by MTT assay; format: functional, cell-based; settings: for IC50: HL-60, 72 h
HL-60 [8] = assay: Induction of apoptosis in human HL60 cells assessed as increase in chromatin condensation at 10 uM after 24 hrs by Hoechst staining-based flow cytometric analysis; format: functional, cell-based
MOLT-3 [9] = assay: Cytotoxicity against human MOLT3 cells after 72 hrs by MTT assay; format: functional, cell-based; settings: for IC50: MOLT-3, 72 h
HL-60 [10] = assay: Induction of apoptosis in human HL60 cells assessed as […] hydrolysis of chromatin at 10 uM after 24 hrs by agarose gel electrophoretic analysis; format: functional, cell-based
U-937 [11] = assay: Induction of apoptosis in human U937 cells assessed as […] hydrolysis of chromatin at 10 uM after 24 hrs by agarose gel electrophoretic analysis; format: functional, cell-based
MCF7 [12] = assay: Cytotoxicity against human MCF7 cells assessed as morphological changes at 10 uM after 24 hrs by inverted phase-contrast microscopic analysis; format: functional, cell-based
MCF7 [13] = assay: Cytotoxicity against human MCF7 cells after 72 hrs by MTT assay; format: functional, cell-based; settings: for IC50: MCF7, 72 h
U-937 [14] = assay: Cytotoxicity against human U937 cells assessed as reduction in cell number at 10 uM after 24 hrs by inverted phase-contrast microscopic analysis; format: functional, cell-based
U-937 [15] = assay: Cytotoxicity against human U937 cells assessed as morphological changes at 10 uM after 24 hrs by inverted phase-contrast microscopic analysis; format: functional, cell-based
HL-60 [16] = assay: Cytotoxicity against human HL60 cells assessed as reduction in cell number at 10 uM after 24 hrs by inverted phase-contrast microscopic analysis; format: functional, cell-based
MOLT-3 [17] = assay: Cytotoxicity against human MOLT3 cells assessed as reduction in cell number at 10 uM after 24 hrs by inverted phase-contrast microscopic analysis; format: functional, cell-based
U-937 [18] = assay: Induction of apoptosis in human U937 cells assessed as increase in apoptotic cells at 10 uM after 24 hrs by propidium iodide staining-based flow cytometric analysis (reference value: 2.3 /- 0.4%); format: functional
MOLT-3 [19] = assay: Induction of apoptosis in human MOLT3 cells assessed as increase in apoptotic cells at 10 uM after 24 hrs by propidium iodide staining-based flow cytometric analysis (reference value: 3.1 /- 0.7%); format: functional

Row | Structure (SMILES) | Activity (MOLT-3 [1]) | Activity (HL-60 [2]) | Activity (U-937 [3]) | Activity (MOLT-3 [4]) | Activity (U-937 [5]) | IC50 (U-937 [5]) | Activity (MOLT-3 [6]) | Activity (HL-60 [7]) | IC50 (HL-60 [7]) | Activity (HL-60 [8]) | Activity (MOLT-3 [9]) | IC50 (MOLT-3 [9]) | Activity (HL-60 [10]) | Activity (U-937 [11]) | Activity (MCF7 [12]) | Activity (MCF7 [13]) | IC50 (MCF7 [13]) | Activity (U-937 [14]) | Activity (U-937 [15]) | Activity (HL-60 [16]) | further results
1 | CC(C)[C@@H]1CC[C@@H](C)C[C@H]1O[C@@H]1O[C@H](CO[C@@H]2O[C@H](COC(=O)c3ccc(Br)cc3)[C@@H](OC(=O)c3ccc(Br)cc3)[C@H](O)[C@H]2O)[C@@H](O)[C@H](O)[C@H]1O | Active | Active | Active | Active | Dose-dependent effect | 9.2 µM | Active | Dose-dependent effect | 7 µM | Active | Dose-dependent effect | 11.4 µM | Active | Active | Active | Dose-dependent effect | 12.9 µM | Active | Active | Active | Activity (MOLT-3 [17]): Active
2 | CC(C)[C@H]1CC[C@H](C)C[C@@H]1O[C@H]1O[C@H](CO[C@@H]2O[C@H](COC(=O)c3ccc(Br)cc3)[C@@H](OC(=O)c3ccc(Br)cc3)[C@H](O)[C@H]2O)[C@@H](O)[C@H](O)[C@H]1O | Active | Active | Active | Active | Dose-dependent effect | 6.9 µM | Active | Dose-dependent effect | 7.3 µM | Active | Dose-dependent effect | 5.8 µM | Active | Active | Active | Dose-dependent effect | 6.1 µM | Active | Active | Active | Activity (U-937 [18]): 46%; Activity (MOLT-3 [19]): 69.5%; Activity (MOLT-3 [17]): Active
